Measured values reported in ChEMBL document CHEMBL1221403, “Topsentinols, 24-isopropyl steroids from the marine sponge Topsentia sp” (J Nat Prod, 2010).
Active and inactive are the calls of the source. No cut-off for these calls is given here.

Tests used:
[1] = target: Beta-secretase 1 (Homo sapiens, UniProt P56817); test: Inhibition of BACE1-mediated cleavage of amyloid precursor protein after 16 hrs by spectrophotometry
[2] = Inhibition of chymotrypsin in absence of Triton X-100
[3] = Inhibition of chymotrypsin in presence of 0.01% Triton X-100

Chain of Beta-secretase 1 (P56817 whole entry): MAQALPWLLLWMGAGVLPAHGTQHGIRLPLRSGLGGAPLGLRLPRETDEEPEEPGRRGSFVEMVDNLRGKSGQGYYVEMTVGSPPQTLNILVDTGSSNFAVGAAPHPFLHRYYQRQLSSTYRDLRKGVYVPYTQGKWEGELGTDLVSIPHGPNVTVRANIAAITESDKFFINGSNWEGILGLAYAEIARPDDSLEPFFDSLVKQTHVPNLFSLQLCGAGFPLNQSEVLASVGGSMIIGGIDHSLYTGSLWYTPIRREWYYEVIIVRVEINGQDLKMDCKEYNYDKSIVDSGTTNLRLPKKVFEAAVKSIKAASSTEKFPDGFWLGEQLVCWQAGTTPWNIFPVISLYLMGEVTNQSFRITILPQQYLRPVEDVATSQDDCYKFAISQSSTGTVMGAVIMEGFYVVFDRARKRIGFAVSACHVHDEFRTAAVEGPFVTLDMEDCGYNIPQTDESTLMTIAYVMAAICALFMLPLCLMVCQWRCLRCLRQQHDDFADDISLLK

inhibition [1] | IC50 [1] | IC50 [2] | IC50 [3] | Compound
inactive |  |  |  | CC(C)C(/C=C/[C@@H](C)[C@H]1CC[C@H]2[C@@H]3C[C@H](O)[C@H]4C[C@H](O)[C@@H](O)C[C@]4(C)[C@H]3CC[C@]12C)C(C)C
inactive |  |  |  | CC(C)C(/C=C/[C@@H](C)[C@H]1CC[C@H]2[C@@H]3CC=C4C[C@@H](O)CC[C@]4(C)[C@H]3CC[C@]12C)C(C)C
inactive |  |  |  | C=C(C)C(/C=C\[C@@H](C)[C@H]1CC[C@H]2[C@@H]3C[C@H](O)[C@H]4C[C@H](O)[C@@H](O)C[C@]4(C)[C@H]3CC[C@]12C)C(C)C (stereo partly drawn)
inactive |  |  |  | CC(C)C(/C=C\[C@@H](C)[C@H]1CC[C@H]2[C@@H]3C[C@H](O)[C@H]4C[C@H](O)[C@@H](O)C[C@]4(C)[C@H]3CC[C@]12C)C(C)C
Dose-dependent effect | 1.2 µM | 2.7 µM | 34.6 µM | CC(C)C(/C=C\[C@@H](C)[C@H]1CC[C@H]2[C@@H]3C[C@H](OS(=O)(=O)O)[C@H]4C[C@H](OS(=O)(=O)O)[C@@H](OS(=O)(=O)O)C[C@]4(C)[C@H]3CC[C@]12C)C(C)C [TOPSENTINOL K TRISULFATE]
